Test systems include CAKI-1 renal; EKVX NSCLC; SF-295 CNS; HL-60(TB) leukemia; OVCAR-8 ovarian; SW-620 colon; CCRF-CEM leukemia; A549 NSCLC; SK-MEL-2 melanoma; HCC-2998 colon; MALME-3M melanoma; OVCAR-4 ovarian; SK-MEL-5 melanoma; UACC-62 melanoma; SN12C renal; NCI-H23 lung; LOX IMVI melanoma; NCI-H226 lung; NCI-H460 lung; RXF 393 renal.
Assay in all cases: NCI-60 cell line screen, 48 h

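96-well plates; 48 h exposure; 5 concentrations. Endpoints by linear interpolation between flanking doses. Not reached: highest tested concentration assigned. The concentration for full growth arrest is given as TGI.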 Where a SMILES comes first, the peptide text is derived from it. [ ]: non-standard residue; d: D form.

As to `CCC1NC(N=Nc2ccc([N+](=O)[O-])cc2)(P(=O)(OC(C)C)OC(C)C)OC1=O` (stereo not drawn), the TGI in the assay on CAKI-1 renal, in the assay with EKVX NSCLC, in the assay on SF-295 CNS, in the assay on HL-60(TB) leukemia, in the assay on OVCAR-8 ovarian and in the assay with SW-620 colon was above 100 µM in each case. Besides, the TGI with CCRF-CEM leukemia, with A549 NSCLC, with SK-MEL-2 melanoma, in the assay on HCC-2998 colon, in the assay on MALME-3M melanoma and in the assay with OVCAR-4 ovarian was above 100 µM throughout. The TGI in the assay on SK-MEL-5 melanoma, with UACC-62 melanoma, with SN12C renal and in the assay on NCI-H23 lung was above 100 µM in each case.

With `CC(C)C[C@H](NC(=O)[C@H](CC(C)C)NC(=O)[C@@H](Cc1c[nH]c2ccccc12)NC(=O)[C@H](Cc1ccccc1)NC(=O)[C@@H](Cc1c[nH]c2ccccc12)NC(=O)[C@H](CCC(N)=O)NC(=O)[C@H](CCC(N)=O)NC(=O)[C@H]1CCCN1C(=O)[C@@H](N)CCCCN)C(N)=O` (H-K[dP]QQ[dW]F[dW]LL-NH2), the TGI with LOX IMVI melanoma, with EKVX NSCLC, in the assay on SF-295 CNS, in the assay on HL-60(TB) leukemia, with OVCAR-8 ovarian and in the assay with SW-620 colon was above 100 µM throughout. Besides, the TGI in the assay with CCRF-CEM leukemia, with A549 NSCLC, with NCI-H226 lung, in the assay on SK-MEL-2 melanoma, in the assay with HCC-2998 colon and in the assay with MALME-3M melanoma was above 100 µM in each case. Further, the TGI in the assay with OVCAR-4 ovarian, in the assay on NCI-H460 lung, in the assay with SK-MEL-5 melanoma, with UACC-62 melanoma, in the assay with SN12C renal and in the assay on NCI-H23 lung was above 100 µM each time. In addition, in the assay on RXF 393 renal, the TGI was above 100 µM.

For the compound `Cc1ccc2c(=O)c3ccccc3sc2c1`, the TGI in the assay with CAKI-1 renal, in the assay on LOX IMVI melanoma, with EKVX NSCLC, with HL-60(TB) leukemia, with OVCAR-8 ovarian and with SW-620 colon was above 100 µM throughout. Besides, the TGI in the assay with CCRF-CEM leukemia, with A549 NSCLC, in the assay on NCI-H226 lung, in the assay with HCC-2998 colon, in the assay on MALME-3M melanoma and in the assay on OVCAR-4 ovarian was above 100 µM in each case. Further, the TGI in the assay with NCI-H460 lung, in the assay on SK-MEL-5 melanoma, in the assay on UACC-62 melanoma, in the assay on SN12C renal, in the assay with NCI-H23 lung and in the assay on RXF 393 renal was above 100 µM in each case.

In the case of `CC(=O)Nc1cccc(N=NN(C)C)c1`, the TGI in the assay with CAKI-1 renal, with LOX IMVI melanoma, in the assay on EKVX NSCLC, in the assay on SF-295 CNS, with HL-60(TB) leukemia and in the assay with OVCAR-8 ovarian was above 100 µM each time. Besides, the TGI with SW-620 colon, in the assay on CCRF-CEM leukemia, in the assay with A549 NSCLC, with NCI-H226 lung, in the assay on SK-MEL-2 melanoma and in the assay with HCC-2998 colon was above 100 µM each time. In addition, the TGI in the assay with MALME-3M melanoma, with OVCAR-4 ovarian, in the assay with NCI-H460 lung, in the assay with SK-MEL-5 melanoma, with UACC-62 melanoma and in the assay on SN12C renal was above 100 µM each time. Further, the TGI with NCI-H23 lung and in the assay on RXF 393 renal was above 100 µM in each case.

Take `CC(C)NC(=O)OCc1c2c(n(C)c1COC(=O)NC(C)C)-c1ccccc1CC2`: the TGI with CAKI-1 renal is 25.5 µM; in the assay with LOX IMVI melanoma, 16.9 µM; with EKVX NSCLC, 33.6 µM; in the assay with SF-295 CNS, 30.2 µM; in the assay on HL-60(TB) leukemia it was above 32 µM; in the assay with OVCAR-8 ovarian it was 31.1 µM. The TGI is 26 µM in the assay on SW-620 colon; 7.63 µM with CCRF-CEM leukemia; 89.9 µM in the assay on A549 NSCLC; 31.4 µM in the assay on NCI-H226 lung; 29.5 µM with SK-MEL-2 melanoma; 26.3 µM in the assay with HCC-2998 colon. Further, the TGI in the assay with MALME-3M melanoma was determined as 19.2 µM; with OVCAR-4 ovarian, 34.5 µM; in the assay with NCI-H460 lung, 28.8 µM; in the assay with SK-MEL-5 melanoma, 29.1 µM; in the assay with UACC-62 melanoma, 25.5 µM; in the assay with SN12C renal, 27.4 µM. Moreover, the figures for the TGI with NCI-H23 lung and in the assay with RXF 393 renal were 19.7 µM and 27.3 µM, respectively.

For the compound `O=[N+]([O-])c1ccc(NNN=Nc2ccc(-c3nc4ccccc4s3)cc2)c([N+](=O)[O-])c1`, the TGI in the assay on CAKI-1 renal was above 100 µM; in the assay on LOX IMVI melanoma it was 32.7 µM; in the assay with EKVX NSCLC it was 44.4 µM; in the assay with SF-295 CNS it was 42.6 µM; with HL-60(TB) leukemia it was 69.9 µM; in the assay on OVCAR-8 ovarian, 72.5 µM. In addition, the TGI was above 100 µM in the assay with SW-620 colon; above 100 µM in the assay on CCRF-CEM leukemia; above 100 µM in the assay with A549 NSCLC; 69.4 µM in the assay with NCI-H226 lung; 41.8 µM with SK-MEL-2 melanoma; 36.6 µM in the assay with HCC-2998 colon. The TGI in the assay on MALME-3M melanoma is 77.6 µM; in the assay with OVCAR-4 ovarian, above 100 µM; in the assay with NCI-H460 lung, 56.3 µM; in the assay with SK-MEL-5 melanoma it was 29.3 µM; in the assay with UACC-62 melanoma it was 27.7 µM; in the assay with SN12C renal, 50.8 µM. Also, the TGI is 59.3 µM in the assay with NCI-H23 lung and 50.5 µM in the assay with RXF 393 renal.

In the case of `O=C(O)C1CCCCN1c1ccccc1[N+](=O)[O-]` (stereo not drawn), the TGI with CAKI-1 renal, in the assay with LOX IMVI melanoma, with EKVX NSCLC, with SF-295 CNS, in the assay with HL-60(TB) leukemia and in the assay on OVCAR-8 ovarian was above 100 µM throughout. Moreover, the TGI in the assay on SW-620 colon, with CCRF-CEM leukemia, with A549 NSCLC, in the assay with NCI-H226 lung, in the assay with SK-MEL-2 melanoma and in the assay with HCC-2998 colon was above 100 µM in each case. Also, the TGI in the assay with MALME-3M melanoma, in the assay on OVCAR-4 ovarian, with NCI-H460 lung, in the assay with SK-MEL-5 melanoma, with UACC-62 melanoma and in the assay on SN12C renal was above 100 µM each time. The TGI in the assay with NCI-H23 lung and in the assay with RXF 393 renal was above 100 µM each time.

The values above are taken from PubChem BioAssay (NCI).
